Where two headings read alike, the source gives them in different places.
What was measured:
T. cruzi CYP51 = T. cruzi CYP51 (Trypanosoma cruzi, UniProt Q7Z1V1); experiment: T. cruzi CYP51 biochemical assay
HepG2 cells = experiment: general cytotoxicity assay in HepG2 cells; type: cell-based; conditions: Homo sapiens, HepG2, 48 h, CellTiter-Glo
Experimental: This assay was previously described ([36]). Briefly, actively growing HepG2 cells were removed from a T-175 TC flask using 5 ml Eagle’s MEM (containing 10 % FBS, 1 % NEAA, 1 % penicillin/ streptomycin. Carbon source is D-glucose at 1 g/l) and dispersed in the medium by repeated pipetting. Seeding density was checked to ensure that new monolayers were not more than 50 % confluent at the time of harvesting. Cell suspension was added to 500 ml of the same medium at a final density of 1.2 x 10^5 cells/ml. This cell suspension was dispensed (25 μl, 3000 cells per well) into 384-well clear-bottom plates using a Multidrop Combi dispenser. Prior to addition of the cell suspension, the screening compounds (250 nl) were predispensed into the plates with an EchoH liquid handler. Plates were incubated for 48 h at 37°C, 5% CO2. After incubation, plates equilibrated at room temperature for 30 min before proceeding to develop the luminescent signal. The signal developer, CellTiter-Glo Reagent, was allowed to equilibrate at room temperature for 30 min and added to the plates ([…]) using a Multidrop Combi dispenser. Plates were left for 10 min at room temperature for stabilization and then read using a ViewLux.

[1] = chromatographic LogD assay; type: physicochemical; conditions: reversed phase HPLC column (Gemini NX C18), pH 7.4; read-out: Chrom logD pH 7.4
Experimental: The chromatographic hydrophobicity index (CHI) values were measured using reversed phase HPLC column (50 mm × 2 mm, 3 μm Gemini NX C18, Phenomenex, U.K.) with fast acetonitrile gradient at starting mobile phase at pH 7.4. CHI values were derived directly from the gradient retention times by using a calibration line obtained for standard compounds. The CHI value approximates to the volume % organic concentration when the compound elutes. CHI was linearly transformed into ChromlogD by least-squares fitting of experimental CHI values to calculated log P (ClogP) values for over 20K research compounds using the following formula: ChromlogD = 0.0857CHI − 2.00. The average error of the assay is ±3 CHI units or ± 0.25 ChromlogD.

Property Forecast Index = type: physicochemical; conditions: number of aromatic rings + ChromLogD at pH 7.4
[2] = intrinsic clearance in mouse liver microsomes; type: in vitro ADME
Experimental: Immediately at time zero and at several serial times points up to 30 min, an aliquot of the incubation mixture was removed and mixed with acetonitrile to stop the reaction. Internal standard was added to all samples, the samples centrifuged to sediment precipitated protein and the plates then sealed prior to HPLC-MS/MS analysis. Metabolic stability expressed as a percentage of the parent molecule was calculated using the peak area ratio (compound peak area/internal standard peak area) of different compounds remaining after each incubation time compared to time zero of the incubation. The half-life (t1/2) was calculated using the following equation: t1/2=−ln(2)/k, where k is the turn-over rate constant of the ln (percent remaining) vs time regression.
CLint was calculated from the half-life (t1/2) using the following equations:
CLint (ml/min/g liver) = (0.693/(t1/2) x (ml of incubation/mg microsomal protein) x (mg microsomal protein/g liver).

[3] = plasma protein binding, equilibrium dialysis; type: in vitro ADME; conditions: pH 7.4, mouse plasma, read-out: Mouse PPB % (converted)
Experimental: In vitro plasma protein binding was measured in mouse and human plasma using equilibrium dialysis at a nominal concentration of 2 μM. The RED inserts were placed in the 48 wells of the Teflon Plate (Pierce). Samples were prepared by mixing the test compound with plasma at the appropriate concentrations to yield a final drug concentration of 2 μM. Triplicate aliquots of plasma containing compounds at a concentration of 2 μM were pipetted to plasma side (red) of the insert, and PBS (phosphate buffered saline) pH 7.4 was placed into the receiver side (white) of the insert. The plate was covered with the sealing tape and incubated in a 37 °C orbital shaker water bath at approximately 150 rpm for 4 h. Following incubation, samples were prepared in a mixed matrix configuration. Aliquots of samples were pipetted into 96-well plates, and precipitation buffer was added to protein precipitate the samples. Samples were vortexed to mix, then centrifuged for 15 min at 3700 rpm and 4 °C. The supernatant was assayed directly by LC−MS/MS. The following equation was used to calculate the percentage bound drug fraction using this equilibrium dialysis method
% unbound = (buffer chamber]/[plasma chamber) x100

[4] = bioanalysis of blood samples from in vivo efficacy studies; set-up: species or system BALB/c mice; conditions: for AUC0-7h Day 1, unbound concentrations of compound 3 / AUC0-7h Day 5, unbound concentrations of compound 3 / Cmax Day 1, unbound concentrations of compound 3 / Cmax Day 5, unbound concentrations of compound 3: 50mg/kg bid, 5 days; for AUC(0-t) / Cmax: BALB/c, mouse, whole blood, po, 50 mg/kg, compound 3 50mg/kg bid
Experimental: Following the first daily dose on day 1 and last day of treatment, serial blood samples were taken by the tail vein from all treated mice pre-dose, then 30 minutes, 1, 2, 4, and 8 hours post-dose, mixed with two volumes of distilled water and analyzed for test compound. Quantification of compounds was performed by means of LC/MSMS and exposure parameters namely Cmax and AUClast were estimated using Phoenix 64 (Pharsight Certara).

[5] = tested on: intracellular T. cruzi Silvio X10/7 A1 in Vero cells; experiment: washout outgrowth assay; type: cell-based, Trypanosoma cruzi; conditions: 50× EC50 for five days
Experimental: Washout outgrowth assay: Vero cells were infected overnight in T600 flasks at a multiplicity of infection (MOI) 5 with T. cruzi Silvio X10/7 A1 trypomastigotes, followed by washing of the Vero monolayer to remove free trypomastigotes. 24 hours later the monolayer was trypsinised, 5.3 x 10^6 Vero cells were plated in T75 tissue culture flasks (in 20 ml MEM-Glutamax (ThermoFisher), 1% Fetal Calf Serum (FCS)), and treatment was started. For ten-day treatments, medium with compounds was replaced after the initial 5 days. For 16 day treatments the compounds were replaced every four days. For compound washout, all medium was aspirated, and flasks were washed three times with 10 ml serum-free MEM medium followed by a final aspiration and addition of 20 ml MEM-Glutamax (ThermoFisher) supplemented with 1% FCS. The cultures were then maintained until trypomastigotes were detected by light microscopy. Medium was replaced twice weekly and prior to each medium replacement microscopic evaluation was carried out (five fields per flask) for up to 60 days post washout. Robustness of the data was confirmed by profiling multiple compounds from the pyrrolopyrimidine series in a single experiment (compounds 2,3 and 4 in Fig. 2 and Fig. S17) as well as comparing results from independent experiments (compound 2 in Fig. 2, Fig. S5 and Fig. S7).

[6] = tested on: chronic T. cruzi infection (CL Brener) in BALB/c mice; experiment: bioluminescent mouse model of chronic Chagas disease; type: in vivo, Trypanosoma cruzi; conditions: 5 days
[7] = dosing group 3 + BNZ (30mg/kg qd)

Sequence of T. cruzi CYP51 (Q7Z1V1 whole entry): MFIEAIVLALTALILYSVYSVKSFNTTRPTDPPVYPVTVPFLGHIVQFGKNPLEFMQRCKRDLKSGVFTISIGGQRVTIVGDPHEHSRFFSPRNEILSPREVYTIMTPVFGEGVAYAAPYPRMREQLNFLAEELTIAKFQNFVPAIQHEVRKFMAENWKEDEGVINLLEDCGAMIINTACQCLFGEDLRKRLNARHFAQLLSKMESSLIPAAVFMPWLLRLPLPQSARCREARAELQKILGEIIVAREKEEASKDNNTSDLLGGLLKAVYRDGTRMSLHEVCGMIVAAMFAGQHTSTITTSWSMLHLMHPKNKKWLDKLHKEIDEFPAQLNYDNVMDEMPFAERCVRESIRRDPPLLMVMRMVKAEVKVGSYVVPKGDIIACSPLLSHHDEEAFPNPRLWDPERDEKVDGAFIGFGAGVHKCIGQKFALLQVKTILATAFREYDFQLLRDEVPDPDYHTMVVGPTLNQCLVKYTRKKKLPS

COc1cc(Cl)ccc1-c1c(C)[nH]c2nc(N)nc(C)c12 [Compound 3, 5-(4-Chloro-2-methoxyphenyl)-4,6-dimethyl-7H-pyrrolo[2,3-d]pyrimidin-2-amine]
IC50 (T. cruzi CYP51): > 100 µM | EC50 (HepG2 cells; read-out: HepG2 EC50): 79 µM | EC50 (HepG2 cells; read-out: HepG2 pEC50 (converted)): 79.4 µM | chromatographic logD [1]: 4.2 | PFI (Property Forecast Index): 7.2 | Cl int mouse [2]: 1.4 ml/min/g liver | half-life at 0.5 μM ([2]; male, CD-1, read-out: T 1/2 mouse): 48 min | fraction unbound at 4 h, 2 μM [3]: 0.03 | AUC0-7h Day 1, unbound concentrations of compound 3 [4, 7]: 2234 ± 509 ng·h/mL | AUC0-7h Day 5, unbound concentrations of compound 3 [4, 7]: 5525 ± 663 ng·h/mL | Cmax Day 1, unbound concentrations of compound 3 [4, 7]: 412 ± 88 ng/mL | Cmax Day 5, unbound concentrations of compound 3 [4, 7]: 977 ± 129 ng/mL | AUC0-7h Day 1, unbound concentrations of compound 3 ([4]; dosing group 3 alone): 3024 ± 619 ng·h/mL | AUC0-7h Day 5, unbound concentrations of compound 3 ([4]; dosing group 3 alone): 6094 ± 870 ng·h/mL | Cmax Day 1, unbound concentrations of compound 3 ([4]; dosing group 3 alone): 530 ± 95 ng/mL | Cmax Day 5, unbound concentrations of compound 3 ([4]; dosing group 3 alone): 1014 ± 185 ng/mL | AUC(0-t) ([4]; 10-day study, read-out: AUC0-7h Day 1): 1800 ± 243 ng·h/mL | AUC(0-t) ([4]; 10-day study, read-out: AUC0-7h last day): 7790 ± 1560 ng·h/mL | Cmax ([4]; 10-day study, read-out: Cmax Day 1): 325 ± 59 ng/mL | Cmax ([4]; 10-day study, read-out: Cmax last day): 1250 ± 259 ng/mL | AUC(0-t) ([4]; 20-day study, read-out: AUC0-7h Day 1): 2740 ± 388 ng·h/mL | AUC(0-t) ([4]; 20-day study, read-out: AUC0-7h last day): 4920 ± 479 ng·h/mL | Cmax ([4]; 20-day study, read-out: Cmax Day 1): 480 ± 69 ng/mL | Cmax ([4]; 20-day study, read-out: Cmax last day): 810 ± 75 ng/mL | relapse day after the end of treatment [5]: 14 days | 95% confidence interval for no-relapse ([6]; Fig. 3, compound 3 50 mg/kg bid): 0.19 − 0.81 | animals relapsed ([6]; compound 3 monotherapy 50 mg/kg bid, oral): three out of six

Reference: publication PMC7615676, “Short-course combination treatment for experimental chronic Chagas disease” (Science translational medicine, 2023)
